The source of these data is patent US7763657B2, “Compounds, isomer thereof, or pharmaceutically acceptable salts thereof as vanilloid receptor antagonist; and pharmaceutical compositions containing the same” (Amorepacific Corporation, priority 2005, dated 2010).

One test has as its system Male ICR mice. In words: Analgesic activity test: mouse writhing test by inducing with phenyl-p-quinone. Type of test: in vivo. To be noted: ip, 0.5 h, number of writhes vs control, read-out: Analgesic effect (% Inhibition); for inhibition in vivo at 1 mg/kg: Dose 1 mg/kg intraperitoneally 30 min before phenyl-p-quinone. On the procedure: 3. Analgesic Activity Test: Mouse Writhing Test by Inducing with phenyl-p-quinone
Male ICR mice (mean body weight 25 g) were maintained in a controlled lighting environment (12 h on/12 h off) for experiment. Animals received an intraperitoneal injection of 0.3 ml of the chemical irritant phenyl-p-quinone (dissolved in saline containing 5% ethanol to be a dose of 4.5 mg/kg) and 6 mins later, the number of abdominal constrictions was counted in the subsequent 6 mins period. Animals (10 animals/group) received 0.2 ml of test compounds solution in vehicle of ethanol/Tween 80/saline (10/10/80) intraperitoneally 30 min before the injection of phenyl-p-quinone. A reduction in the number of writhes responding to the test drug compound relative to the number responding in saline control group was considered to be indicative of an analgesic effect. Analgesic effect was calculated by % inhibition equation (% inhibition=(C−T)/C×100), wherein C and T represent the number of writhes in control and compound-treated group, respectively (Table 3).
(In general: Writhing tests count abdominal constrictions after an irritant is injected.)

The target of the next test is T1, vanilloid receptor (Rattus norvegicus, UniProt O35433).
T1 construct: DRG nerve cells from the primary culture of 2 days were equilibrated; endogenous in cells; host or cells: primary cultured dorsal root ganglion neurons of neonatal SD rats
The test can be described thus: 45Ca influx test (calcium uptake) in primary cultured DRG neurons, antagonism of capsaicin. Type of test: cell-based. To be noted: neonatal SD rat DRG nerve cells; capsaicin 0.5 μM; 45Ca 10 μCi/ml; 10 mins room temperature; read-out: Antagonist Calcium Uptake Test (IC50). On the procedure: 1) Separation of Spinal Dorsal Root Ganglia (DRG) in Newborn Rats and Primary Culture Thereof
Neonatal (2-3 day old or younger than 2-3 day old) SD rats were put in ice for 5 minutes to anesthetize and disinfected with 70% ethanol. […] The DRG were incubated sequentially at 37° C. for 30 min in 200 U/ml collagenase and 2.5 mg/ml trypsin, separately. The ganglia were washed twice with DME/F12 medium supplemented with 10% horse serum, triturated through a fire-polished Pasteur pipette, filtered through Nitex 80 membrane to obtain single cell suspension and the suspension was washed once more. This was subjected to centrifugation, then resuspended in cell culture medium at certain level of cell density. As the cell culture medium, DME/F12 medium supplemented with 10% horse serum was diluted with identical medium conditioned by C6 glioma cells 2 days on a confluent monolayer (1:1), and NGF (Nerve Growth Factor) was added to adjust 200 ng/ml as final concentration. After the cells were grown 2 days in medium where cytosine arabinoside (Ara-C, 100 μM) was added to kill dividing nonneuronal cells, medium was changed to one without Ara-C. The resuspended cells were plated at a density of 1500-2000 neurons/well onto Terasaki plates previously coated with 10 μg/ml poly-D-ornithine.
2) ^45Ca Influx Experiments
DRG nerve cells from the primary culture of 2 days were equilibrated by washing 4 times with HEPES (10 mM, pH 7.4)-buffered Ca^2+, Mg^2+-free HBSS (H—HBSS). The solution in each well was removed from the individual well. Medium containing the test compound plus capsaicin (final concentration 0.5 μM) and ^45Ca (final concentration 10 μCi/ml) in H—HBSS was added to each well and incubated at room temperature for 10 mins. Terasaki plates were washed five times with H—HBSS and dried at room temperature. To each well, 0.3% SDS (10 μl) was added to elute ^45Ca. After the addition of scintillation cocktail of into each well, the amount of ^45Ca influx into neuron was measured by counting radioactivity.

T1 sequence (O35433 whole entry): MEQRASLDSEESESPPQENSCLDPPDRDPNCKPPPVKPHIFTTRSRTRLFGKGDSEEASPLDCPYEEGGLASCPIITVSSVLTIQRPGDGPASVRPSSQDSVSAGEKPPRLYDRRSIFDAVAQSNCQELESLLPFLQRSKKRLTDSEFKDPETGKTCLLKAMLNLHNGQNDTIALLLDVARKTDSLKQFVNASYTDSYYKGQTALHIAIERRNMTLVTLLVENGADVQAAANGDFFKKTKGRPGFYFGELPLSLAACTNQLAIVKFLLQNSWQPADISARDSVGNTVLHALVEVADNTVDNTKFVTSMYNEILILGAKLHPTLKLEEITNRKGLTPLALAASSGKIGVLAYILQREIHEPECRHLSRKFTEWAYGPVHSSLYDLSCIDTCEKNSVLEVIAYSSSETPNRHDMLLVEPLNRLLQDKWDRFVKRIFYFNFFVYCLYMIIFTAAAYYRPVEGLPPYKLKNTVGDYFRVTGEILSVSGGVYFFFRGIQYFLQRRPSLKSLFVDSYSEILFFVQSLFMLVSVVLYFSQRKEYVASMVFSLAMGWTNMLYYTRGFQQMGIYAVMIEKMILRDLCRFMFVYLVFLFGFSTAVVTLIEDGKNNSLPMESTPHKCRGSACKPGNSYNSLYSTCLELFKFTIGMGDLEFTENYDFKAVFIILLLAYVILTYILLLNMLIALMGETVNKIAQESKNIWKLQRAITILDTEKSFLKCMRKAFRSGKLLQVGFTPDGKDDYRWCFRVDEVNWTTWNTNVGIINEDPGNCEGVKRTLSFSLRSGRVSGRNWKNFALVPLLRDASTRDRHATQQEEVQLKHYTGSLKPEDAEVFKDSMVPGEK

For the compound `C=Cc1cc([C@@H](C)NC(=O)/C=C/c2ccc(C(C)(C)C)cc2)ccc1NS(C)(=O)=O` [Example 14, 3-(4-t-butylphenyl)-N-[1-(R)-(4-methanesulfonylamino-3-vinylphenyl)ethyl]acrylamide], the inhibition in vivo at 1 mg/kg in the test on Male ICR mice came out at 58%. The IC50 at vanilloid receptor was 50 nM.

Consider `C=Cc1cc(CNC(=O)CCc2ccc(C(C)(C)C)cc2)ccc1NS(C)(=O)=O` [Example 45, 3-[4-(tert-butyl)phenyl]-N-[4-(methanesulfonylamino)-3-vinylbenzyl]propionamide], for which, in the test on Male ICR mice, the inhibition in vivo at 1 mg/kg came out at 82%. Besides, the IC50 at vanilloid receptor is 63 nM.

As for `C=Cc1cc(CNC(=O)CCc2ccc(C(C)(C)C)cc2)cc(F)c1NS(C)(=O)=O` [Example 46, 3-[4-(tert-butyl)phenyl]-N-[3-fluoro-4-(methanesulfonylamino)-5-vinylbenzyl]propionamide], in the test on Male ICR mice, the inhibition in vivo at 1 mg/kg was 43%. Moreover, on vanilloid receptor, the IC50 was 25 nM.

As to `C=Cc1cc([C@@H](C)NC(=O)NCc2ccc(C(C)(C)C)cc2)ccc1NS(C)(=O)=O` [Example 6, N-(4-{1-(R)-[3-(4-t-butylbenzyl)ureido]ethyl}-2-vinylphenyl)methanesulfonamide], the inhibition in vivo at 1 mg/kg in the test on Male ICR mice was found to be 56%. For the same compound, at vanilloid receptor, the IC50 came to 82 nM.

For `C=Cc1cc(CNC(=O)/C=C/c2ccc(C(C)(C)C)cc2)ccc1NS(C)(=O)=O` [Example 17, 3-(4-t-butylphenyl)-N-(4-methanesulfonylamino-3-vinylbenzyl)acryl amide], in the test with Male ICR mice, the inhibition in vivo at 1 mg/kg was 63%. At vanilloid receptor, the half-inhibitory concentration (IC50) amounted to 58 nM.

On to `C=Cc1cc(CNC(=O)NCc2ccc(C(C)(C)C)cc2)cc(F)c1NS(C)(=O)=O` [Example 2, N-{4-[3-(4-t-butylbenzyl)ureidomethyl]-2-fluoro-6-vinylphenyl}methanesulfonamide], for which, in the test with Male ICR mice (Dose 0.3 mg/kg intraperitoneally 30 min before phenyl-p-quinone), the inhibition in vivo at 0.3 mg/kg is 57%. The IC50 on vanilloid receptor was determined as 98 nM.

In the case of `C#Cc1cc(CNC(=O)/C=C/c2ccc(C(C)(C)C)cc2)cc(F)c1NS(C)(=O)=O` [Example 16, 3-(4-t-butylphenyl)-N-(3-fluoro-5-ethynyl-4-methanesulfonylamino-benzyl)acrylamide], the inhibition in vivo at 1 mg/kg in the test with Male ICR mice was found to be 68%. Besides, at vanilloid receptor, the IC50 is 47 nM.

On to `C=Cc1cc(CNC(=O)/C=C/c2ccc(C(C)(C)C)cc2)cc(F)c1NS(C)(=O)=O` [Example 15, 3-(4-t-butylphenyl)-N-(3-fluoro-4-methanesulfonylamino-5-vinylbenzyl)acrylamide], for which the inhibition in vivo at 1 mg/kg with Male ICR mice was 60%. Besides, the IC50 on vanilloid receptor amounted to 34 nM.

Take `C=Cc1cc(CNC(=O)/C=C/c2ccc(C(C)(C)C)cc2N2CCN(C)CC2)cc(F)c1NS(C)(=O)=O` [Example 25, 3-[4-tert-Butyl-2-(4-methylpiperazin-1-yl)phenyl]-N-(3-fluoro-4-methanesulfonylamino-5-vinylbenzyl)acrylamide]: in the test on Male ICR mice, the inhibition in vivo at 1 mg/kg was 64%.

With `C=Cc1cc(CNC(=O)CCc2ccc(C(C)(C)C)cc2OC2CCOCC2)cc(F)c1NS(C)(=O)=O` [Example 41, 3-[4-tert-Butyl-2-(tetrahydropyran-4-yloxy)phenyl]-N-(3-fluoro-4-methanesulfonylamino-5-vinylbenzyl)propionamide], in the test with Male ICR mice, the inhibition in vivo at 1 mg/kg is 44%. In addition, the IC50 on vanilloid receptor is 43 nM.

As a reminder, the IC50 is the midpoint of a concentration-inhibition curve.
